# Results: PMC7872424, “Mining Natural Products for Macrocycles to Drug Difficult Targets” (Journal of Medicinal Chemistry, 2020)
# Experiments:
# DNA gyrase B = test system: DNA gyrase B; parameters: method as in earlier work; conditions: Table S4, ref Brvar, M., et al., Bioorg. Med. Chem. Lett. 2010, 20, 3, 958–962 & Boehm, H. J., J. Med. Chem. 2000, 43, 14, 2664-2674; cited from earlier work
# HL-60 cell line = test system: HL-60 cell line; parameters: method as in Cribiu, R., et al., Angew. Chem. Int. Ed. 2009, 48, 8780–8783; conditions: Table S4; ref Cribiu, R., et al., Angew. Chem. Int. Ed. 2009, 48, 8780–8783; cited from earlier work
# DAUDI cell line = test system: DAUDI cell line; parameters: method as in Cribiu, R., et al., Angew. Chem. Int. Ed. 2009, 48, 8780–8783; conditions: Table S4; ref Cribiu, R., et al., Angew. Chem. Int. Ed. 2009, 48, 8780–8783; cited from earlier work
# Caco-2 cell monolayers = experiment: Efflux-inhibited permeability across Caco-2 cell monolayers; type: in vitro ADME
# [1] = test system: Trichophyton asteroides 429; parameters: method as in Tamai, S., et al., J. Antibiot., 1982, 35, 1130-1136; conditions: Table S4; ref Tamai, S., et al., J. Antibiot., 1982, 35, 1130-1136; cited from earlier work
# [2] = test system: Trichophyton mentagrophytes 833; parameters: method as in Tamai, S., et al., J. Antibiot., 1982, 35, 1130-1136; conditions: Table S4; ref Tamai, S., et al., J. Antibiot., 1982, 35, 1130-1136; cited from earlier work
smiles,measurement,setting,value
Cc1c(O)cc(O)c2c1C(=O)OCC(NC(=O)C1C(O)CCN1C(=O)C(N)CO)C(=O)NC(C(=O)NC(C)C(=O)O)CSC2 (stereo not drawn) [Cyclothialidine],DNA gyrase B ATPase activity,DNA gyrase B,Inhibition
CC=CCC=CC(C)CC(O)C1CC2OC2C=CC(O)C(O)C=CCC(C)CC(=O)O1 (stereo not drawn) [Iriomoteolide 3a],Antiproliferative activity vs HL-60 cell line,HL-60 cell line,Antiproliferative activity
same,Antiproliferative activity vs DAUDI cell line,DAUDI cell line,Antiproliferative activity
"CC(=O)N1CCC[C@H]1C(=O)N[C@@H]1COC(=O)c2ccccc2CSC[C@H](C(=O)N(C)C)NC1=O [Compound 14, (4S,7R)-7-((S)-1-Acetylpyrrolidine-2-carboxamido)-N,N-dimethyl-6,10-dioxo-1,3,4,5,6,7,8,10-octahydrobenzo[j][1]oxa[8]thia[5]azacyclododecine-4-carboxamide]",permeability across Caco-2 cell monolayers (in words),Caco-2 cell monolayers,low-to-moderate
Oc1ccc2cc1Oc1ccc(cc1)CC1CNC(CN1)C2 (stereo not drawn) [Piperazinomycin],Inhibition of Trichophyton asteroides 429,[1],Inhibition
same,Inhibition of Trichophyton mentagrophytes 833,[2],Inhibition
